Measured values published in patent publication US20080096894A1, “Anti-Bacterial Compounds” (ASTON UNIVERSITY, priority 2005, published 2008).
Structures can show the parent of a compound that is named as a salt. Where two headings read alike, the source gives them in different places.

Tests used:
Test in all cases: MIC, agar dilution, multipoint inoculator
S. aureus = assay type: cell-based, Staphylococcus aureus; conditions: Staphylococcus aureus
Outline: (§1)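 MHA agar dilution, multipoint inoculation, 10^4 CFU/spot; MIC read per compound.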

MRSA = assay type: cell-based, methicillin-resistant Staphylococcus aureus
Outline: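 Agar dilution MIC on Mueller Hinton agar, multipoint inoculator delivering 10^4 colony forming units per spot. MRSA values are ranges across ten clinical MRSA strains; S. aureus NCTC 6571 as reference strain.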

E. faecium = assay type: cell-based, Enterococcus faecium; conditions: Enterococcus faecium
Outline: as §1

S. epidemisis = assay type: cell-based, Staphylococcus epidermidis; conditions: Staphylococcus epidermidis
Outline: as §1

B. bronchiseptica = assay type: cell-based; conditions: Bordetella bronchiseptica, NCTC8344, 18 h
Outline: as §1

E. faecalis = assay type: cell-based
Outline: as §1

S. aboni = assay type: cell-based; conditions: S. aboni NCTC 6017; upper value of MIC reading
Outline: as §1

S. haemolyticus = assay type: cell-based; conditions: Staphylococcus haemolyticus, 18 h
Outline: as §1

S. maltophilia = assay type: cell-based; conditions: Stenotrophomonas maltophilia, NCTC10257, 18 h
Outline: as §1

E. coli = assay type: cell-based, Escherichia coli
Method: (§2) This activity was measured using a multipoint inoculator method as follows. The MIC for each compound was measured using an agar dilution method (Onda, H., et al., Int. J. Antimicrob. Agents. 18, 263 (2001)) (Mueller Hinton agar) by means of a multipoint inoculator delivering 10^4 colony forming units per spot.

K. pneumoniae = assay type: cell-based, Klebsiella pneumoniae; conditions: Klebsiella pneumoniae, 18 h
Method: as §2

S. marcesens = assay type: cell-based, Serratia marcescens; conditions: Serratia marcescens, 18 h
Method: as §2

P. auriginosa = assay type: cell-based, Pseudomonas aeruginosa; conditions: Pseudomonas aeruginosa, NCTC6749, 18 h
Method: as §2

E. cloacae = assay type: cell-based, Enterobacter cloacae; conditions: Enterobacter cloacae, NCTC11582, 18 h
Method: as §2

[1] = system: vancomycin resistant enterococci; assay type: cell-based
Method: as §2
It will be noted that compound 4PYcq was active against all strains of MRSA as well as all other Gram positive bacteria. For this reason it was further tested against some vancomycin resistant enterococci, using the multipoint inoculator method described above. It can be seen from Table 5 that the high level activity was retained.

[2] = MRSA Isolate 1, upper value of MIC reading, in µg/mL
[3] = MRSA Isolate 2, upper value of MIC reading, in µg/mL
[4] = MRSA Isolate 3, upper value of MIC reading, in µg/mL
[5] = MRSA Isolate 4, upper value of MIC reading, in µg/mL
[6] = MRSA Isolate 5, upper value of MIC reading, in µg/mL
[7] = MRSA Isolate 6, upper value of MIC reading, in µg/mL
[8] = MRSA Isolate 8, upper value of MIC reading, in µg/mL
[9] = MRSA Isolate 9, upper value of MIC reading, in µg/mL
[10] = NCTC11047, 18 h, S. epidemisis NCTC 11047, upper value of MIC reading, read-out: MIC
[11] = Escherichia coli, 18 h, E. coli W3110R+, upper value of MIC reading
[12] = Escherichia coli, 18 h, E. coli W3110R−, upper value of MIC reading
[13] = P. auriginosa NCTC 6749, upper value of MIC reading, read-out: MIC

Measured: MIC

CN(C)c1ccc(/C=N/N=C(\N)c2ccncc2)c2ccccc12 [Compound 4PYdx, N^1-[(4-dimethylamino)-1-naphthylidene]-pyridine-4-carboxamidrazone]
128 µg/mL: S. aureus; 18 h | S. aureus; NCTC6571, 18 h | S. aureus; NCTC10788, 18 h | MRSA; Staphylococcus aureus, 18 h | S. epidemisis; 18 h | S. maltophilia | E. coli; [11]
64 to 128 µg/mL: MRSA; Staphylococcus aureus, MRSA, 18 h, read-out: MRSA MIC range
32 µg/mL: S. aboni | P. auriginosa; [13]
256 µg/mL: E. faecium; 18 h | E. faecium; NCTC7171, 18 h | B. bronchiseptica | E. faecalis; E. faecalis EBH1, upper value of MIC reading | E. faecalis; E. faecalis Isolate 1, upper value of MIC reading | E. faecalis; E. faecalis Isolate 2, upper value of MIC reading | E. faecalis; E. faecalis Isolate 4, upper value of MIC reading | E. faecalis; Enterococcus faecalis, 18 h | E. faecalis; Enterococcus faecalis, NCTC5957, 18 h | S. haemolyticus | E. coli; [12] | K. pneumoniae | S. marcesens | E. cloacae
128: MRSA; [2] | MRSA; [3] | MRSA; [4] | MRSA; [5] | MRSA; [6] | MRSA; [7] | MRSA; [8] | MRSA; [9] | MRSA; MRSA Isolate 10, upper value of MIC reading, in µg/mL
64 µg/mL: S. epidemisis; [10]

Cc1onc(-c2c(F)cccc2Cl)c1C(=O)N[C@@H]1C(=O)N2[C@@H]1SC(C)(C)[C@@H]2C(=O)O [Fluclox., Flucloxacillin, reference compound]
8 µg/mL: MRSA; Staphylococcus aureus, 18 h, MRSA Isolate 2, upper value of MIC reading, read-out: MIC | MRSA; Staphylococcus aureus, 18 h, MRSA Isolate 3, upper value of MIC reading, read-out: MIC | MRSA; Staphylococcus aureus, 18 h, MRSA Isolate 8, upper value of MIC reading, read-out: MIC | MRSA; Staphylococcus aureus, 18 h, MRSA Isolate 9, upper value of MIC reading, read-out: MIC | P. auriginosa; [13]
> 16 µg/mL: S. epidemisis; 18 h, S. epidemisis Isolate 1, upper value of MIC reading, read-out: MIC | B. bronchiseptica; B. bronchiseptica NCTC 8344, upper value of MIC reading, read-out: MIC | E. coli; [11] | E. coli; [12] | K. pneumoniae; K. pneumoniae 327, upper value of MIC reading, read-out: MIC | S. marcesens; S. marcesens 4444, upper value of MIC reading, read-out: MIC | E. cloacae; E. cloacae NCTC 11582, upper value of MIC reading, read-out: MIC
0.25 µg/mL: MRSA; Staphylococcus aureus, 18 h, MRSA Isolate 6, upper value of MIC reading, read-out: MIC | MRSA; Staphylococcus aureus, 18 h, MRSA Isolate 7, upper value of MIC reading, read-out: MIC | MRSA; Staphylococcus aureus, 18 h, MRSA Isolate 10, upper value of MIC reading, read-out: MIC
1 µg/mL: E. faecium; 18 h, E. faecium ACTCC 10541, upper value of MIC reading, read-out: MIC | E. faecium; NCTC7171, 18 h, E. faecium NCTC 7171, upper value of MIC reading, read-out: MIC | E. faecalis; Enterococcus faecalis, 18 h, E. faecalis Isolate 1, upper value of MIC reading, read-out: MIC | E. faecalis; Enterococcus faecalis, 18 h, E. faecalis Isolate 4, upper value of MIC reading, read-out: MIC | E. faecalis; Enterococcus faecalis, 18 h, E. faecalis Isolate 5, upper value of MIC reading, read-out: MIC | E. faecalis; Enterococcus faecalis, NCTC5957, 18 h, E. faecalis NCTC 5957, upper value of MIC reading, read-out: MIC
16 µg/mL: MRSA; Staphylococcus aureus, 18 h, MRSA Isolate 4, upper value of MIC reading, read-out: MIC | S. maltophilia; S. maltophilia NCTC 10257, upper value of MIC reading, read-out: MIC
0.05 µg/mL: S. aureus; 18 h, S. aureus Cowan 1, upper value of MIC reading, read-out: MIC | S. aureus; NCTC6571, 18 h, S. aureus NCTC 6571, upper value of MIC reading, read-out: MIC | S. aureus; NCTC10788, 18 h, S. aureus NCTC 10788, upper value of MIC reading, read-out: MIC | MRSA; Staphylococcus aureus, 18 h, MRSA Isolate 1, upper value of MIC reading, read-out: MIC | MRSA; Staphylococcus aureus, 18 h, MRSA Isolate 5, upper value of MIC reading, read-out: MIC | S. epidemisis; [10] | S. aboni
0.5 µg/mL: E. faecalis; Enterococcus faecalis, 18 h, E. faecalis EBH1, upper value of MIC reading, read-out: MIC | E. faecalis; Enterococcus faecalis, 18 h, E. faecalis Isolate 2, upper value of MIC reading, read-out: MIC | S. haemolyticus; S. haemolyticus Isolate 1, upper value of MIC reading, read-out: MIC

CN[C@H](CC(C)C)C(=O)N[C@H]1C(=O)N[C@@H](CC(N)=O)C(=O)N[C@H]2C(=O)N[C@H]3C(=O)N[C@H](C(=O)N[C@H](C(=O)O)c4cc(O)cc(O)c4-c4cc3ccc4O)[C@H](O)c3ccc(c(Cl)c3)Oc3cc2cc(c3O[C@@H]2O[C@H](CO)[C@@H](O)[C@H](O)[C@H]2O[C@H]2C[C@](C)(N)[C@H](O)[C@H](C)O2)Oc2ccc(cc2Cl)[C@H]1O [Vanc., Vancomycin hydrochloride, reference compound]
0.05 µg/mL: S. aureus; NCTC6571, 18 h | S. aboni
0.25 µg/mL: S. aureus; 18 h | E. faecalis; Enterococcus faecalis, 18 h, E. faecalis Isolate 1, upper value of MIC reading | E. faecalis; Enterococcus faecalis, 18 h, E. faecalis Isolate 2, upper value of MIC reading | E. faecalis; Enterococcus faecalis, NCTC5957, 18 h, E. faecalis NCTC 5957, upper value of MIC reading
4 to 8 µg/mL: [1]; Culture 3001562 | [1]; Culture 3002043 | [1]; Culture 3002066 | [1]; Culture 3005426
8 µg/mL: S. epidemisis; 18 h | S. epidemisis; NCTC11047, 18 h | S. haemolyticus
16 µg/mL: E. faecalis; Enterococcus faecalis, 18 h, E. faecalis Isolate 4, upper value of MIC reading
0.12 µg/mL: S. aureus; NCTC10788, 18 h | MRSA; Staphylococcus aureus, 18 h | E. faecium; 18 h | E. faecium; NCTC7171, 18 h | E. faecalis; Enterococcus faecalis, 18 h, E. faecalis EBH1, upper value of MIC reading | E. faecalis; Enterococcus faecalis, 18 h, E. faecalis Isolate 3, upper value of MIC reading
> 16 µg/mL: B. bronchiseptica | S. maltophilia | E. coli; E. coli W3110R+, upper value of MIC reading | E. coli; Escherichia coli, 18 h | K. pneumoniae | S. marcesens | P. auriginosa | E. cloacae | [1]; Culture 3005323 | [1]; Culture 3102095 | [1]; Culture 30053530
2 µg/mL: E. faecalis; Enterococcus faecalis, 18 h, E. faecalis Isolate 5, upper value of MIC reading
0.12: MRSA; [2] | MRSA; [3] | MRSA; [4] | MRSA; [5] | MRSA; [6] | MRSA; [7] | MRSA; MRSA Isolate 7, upper value of MIC reading, in µg/mL | MRSA; [8] | MRSA; [9]
